20 compounds from patent US4532240A, “Diaminopyrimidines” (Warner-Lambert Company, priority 1983, dated 1985) can be followed below.

For one assay, the system named is L1210 cells. Put plainly: In vitro antitumor screening on L1210 murine leukemia cell line (growth, Coulter counter). The class given is cell-based. As to conditions: Mus musculus, L1210, 72 h; three days, 37° C., 5% CO2; read-out: L1210 Leukemia in vitro ID50. On the procedure: L1210 cells, a murine leukemia cell line, were grown in RPMI 1640 supplemented with 5% fetal bovine serum and gentamicin (50 μg/ml).
Drug dilutions were prepared in the appropriate solvent and 20 μl of each dilution were added to 24-well Linbro tissue culture plates, followed by the addition of M 2.0 ml of cell suspension containing 3×10^4cells per ml. Solvent and medium controls were included in each test. After incubation at 37° C. for three days in 5% CO2, the contents of each well were removed and the cells counted in a ZBI Coulter counter. Percent growth was calculated relative to the controls and the levels of drug activity were expressed as ID50 in moles per liter using probit paper.

The test system of another assay is B. catarrhalis. The assay is described as follows: Antibacterial disk zone of inhibition, B. catarrhalis. Format: cell-based, Branhamella catarrhalis 03596. As to conditions: Moraxella catarrhalis; 0.01 mg/ml; read-out: Inhibition Zone diameter. On the procedure:
(§1) Vegetative bacterial isolates are maintained on agar slants or in liquid media, hereby designated as inoculum media. The cultures are transferred at regular intervals in such media. (See Table IV for the corresponding inoculum media of each culture.) The organisms are generally transferred either onto agar slants or into liquid inoculum media and incubated at 37° C. (at 28° C. with Xanthomonas sp.) overnight (18-20 hours).
(§2) The microbial cells from the overnight agar slants are then scraped off and suspended in saline solution (0.85% NaCl). The microbial concentrations are adjusted to a light transmission of 8.6% using a PerkinElmer Model 35 spectrophotometer (550 nm). For the organisms that are maintained in liquid media, one of two procedures is followed: (1) the culture suspension is first centrifuged at 5000 rpm for five minutes. The pellet is resuspended in 0.85% saline to 8.6% light transmittancy; (2) an aliquot of the culture suspension is to be added directly to the assay medium.
(§3) A given molten-agar assay medium, maintained in a flask at approximately 45° C., is inoculated with 0.16-10 ml of an appropriate cell or spore suspension per 100 ml of medium. Fifty ml of the inoculated medium is poured into a Bio-Assay dish (A/S Nunc; Gibco Laboratories Catalog Number 240835) and spread evenly across the bottom, then allowed to solidify at room temperature. Each agar dish is inverted and refrigerated until used.
(§4) The compounds or samples to be tested are dissolved in suitable solvents, e.g., alcohols, dimethylsulfoxide, or N,N-dimethylformamide. The samples are generally dissolved so that the final concentration of the solvent is <10%.* The compounds are tested at different concentrations: 3,000; 1,000; 500; 100; and 10 mcg/ml. Paper discs (12.7 mm diameter) saturated with a given concentration of test compound are placed onto the seeded agar dishes with a pair of forceps.
(§5) The disked agar dishes are incubated at 37° C. (28° C. for Xanthamonas sp.) for 18-20 hours. Active compounds show a zone of inhibition around the disc. The diameter of the zone is measured in mm. The zone diameter of active compounds ranges from a minimum of 13.5 mm to as high as 60 mm. The size of the zone diameter generally reflects the activity of the compound: the larger the zone the greater the activity.

A further assay relates to B. subtilis. The assay is described as follows: Antibacterial disk zone of inhibition, B. subtilis. Format: cell-based, Bacillus subtilis 04555. Particulars: Bacillus subtilis; 0.1 mg/ml; read-out: Inhibition Zone diameter. The method, then: as §1, §2
Isolate spore suspensions (Bacillus sp.) are maintained at 4° C. These suspensions serve as the inoculum media for assays.
as §3, §4, §5

The next assay deals with X. phaseoli. The assay is described as follows: Antibacterial disk zone of inhibition, X. phaseoli. Particulars: Xanthomonas; 3.0 mg/ml; read-out: Inhibition Zone diameter. Format: cell-based, Xanthomonas phascoli 06002. On the procedure: as §1, §2, §3, §4, §5
Another assay relates to S. lutea. Put plainly: Antibacterial disk zone of inhibition, S. lutea (as headed). Format: cell-based, Micrococcus luteus 05064. As to conditions: Micrococcus luteus, read-out: Inhibition Zone diameter. The method, then: as §1, §2, §3, §4, §5
For another assay, the system named is M. faecalis. Put plainly: Antibacterial disk zone of inhibition, M. faecalis (as headed). Format: cell-based, Streptococcus faecalis 05045. As to conditions: Enterococcus faecalis, read-out: Inhibition Zone diameter. The method, then:
as §1, §2, §3, §4, §5

Assay [1] deals with HCT-8 (human colon adenocarcinoma) cells. Put plainly: In vitro activity against HCT-8 human colon adenocarcinoma cells. Format: cell-based. Particulars: HCT-8, 60-65 hours with compound, 37° C., read-out: ID50 against human colon adenocarcinoma. The method, then:
HCT-8 (human colon adenocarcinoma) cells are trypsinized using Trypsin-EDTA. A single cell suspension is achieved by passing the cells through a 26 gauge needle with a 20 cc syringe. A cell suspension is prepared using RPMI 1640+10% FCS+50 μg/ml garamycin with a cell concentration of approximately 30,000 cells/ml. The cell suspension is dispensed in Linbro 24-well plates; 1 ml/well. The plates are incubated for approximately 48 hours at 37° C. in a 5% CO2 atmosphere. At this time test compounds are added in the appropriate concentration. Five μl of the 200 μg/ml stock solution is added to each well in a primary test. Ten μl of the appropriate dilution is added to each well for a titration test. The plates are reincubated an additional 60-65 hours at 37° C. in a 5% CO2 atmosphere. The test is read by lysing the cells using a mix of cationic surfactant, glacial acetic acid and sodium chloride. […] of the lysed cell suspension from each well is added to 8 ml of diluent. Each sample is read on the Coulter counter (ZBI model). The activity of each sample is measured as a percentage of the controls and the data is reported as ID50, that is the molar quantity of drug required to kill 50% of the tumor cells.

In the next assay the test system is P388 Leukemia. Put plainly: In vivo lymphocytic leukemia P388 test in mice. Details: species or system CD2 F1 mice. Particulars: intraperitoneal, two single doses four days apart. The method, then:
The in vivo lymphocytic leukemia P388 test is carried out using the test system of the United States National Cancer Institute. The animals used are either male or female CD2 F1 mice. There are six to seven animals per test group. The tumor transplant is by intraperitoneal injection of dilute ascitic fluid containing cells of lymphocytic leukemia P388. The test compounds are administered intraperitoneally in two single doses with a four-day interval between doses at various dose levels following tumor inoculation. The animals are weighed and survivors are recorded on a regular basis for 30 days. A ratio of survival time for treated (T)/control (C) animals is calculated. The criterion for efficacy is T/C×100>125%. The positive control compound in this test is 5-fluorouracil. See Cancer Chemotherapy Reports, Part 3, 3, 1 (1972) for a comprehensive discussion of the protocol.

Where “and” joins values, the source holds several entries; their conditions need not be identical. Equal values may be shown once. Where a name gives a salt, the structure may show the parent alone. Bounds are passed on as bounds.

Regarding `CCc1nc(N)nc(N)c1N1CCN(c2ccc(C(=O)NC(CCC(=O)O)C(=O)O)cc2)CC1` (stereo not shown) [drawing 11], the IC50 in the assay on L1210 cells was 2000 nM.

For `CCOC(=O)CCC(NC(=O)c1ccc(N2CCN(c3c(N)nc(N)nc3CC)CC2)cc1)C(=O)OCC` (stereo not shown) [drawing 22], the zone of inhibition at 10 µg/mL with B. catarrhalis was determined as 20 mm; in the assay on S. lutea (0.01 mg/ml), 19 mm; in the assay with M. faecalis (0.01 mg/ml), 15 mm. Further, in the assay on B. subtilis, the zone of inhibition at 100 µg/mL is 19 mm. In the assay with X. phaseoli, the zone of inhibition at 3000 µg/mL was determined as 3 mm.

Take `CCCc1nc(N)nc(N)c1N1CCN(c2ccc(C#N)cc2)CC1` [Example 14, 5-[4-(4-cyanophenyl)-1-piperazinyl]-6-propyl-2,4-pyrimidinediamine]: the values for the IC50 (in assay [1]; with L1210 cells) were 120 nM and 8.9 nM, respectively.

Consider `Cc1nc(N)nc(N)c1N1CCN(c2ccc(Cl)cc2)CC1` [Example 21, 5-[4-(4-chlorophenyl)-1-piperazinyl]-6-methyl-2,4-pyrimidinediamine], for which the IC50 in assay [1] amounted to 350 nM; in the assay on L1210 cells it was 28 nM.

With `CCc1nc(N)nc(N)c1N1CCN(c2ccc(C#N)cc2)CC1` [Example 10, 5-[4-(4-cyanophenyl)-1-piperazinyl]-6-ethyl-2,4-pyrimidinediamine], the results for the IC50 (in assay [1]; in the assay on L1210 cells) were 89 nM and 7.7 nM, respectively. The “T/C × 100” value in the assay on P388 Leukemia (50 mg/kg) stood at 126%.

Regarding `CCc1nc(N)nc(N)c1N1CCN(c2ccc(C(=O)NC(CCC(=O)O)C(=O)O)cc2)CC1` (stereo not shown) [drawing 23], the zone of inhibition at 10 µg/mL in the assay on B. catarrhalis turned out to be 14 mm. For the same compound, the zone of inhibition at 100 µg/mL with B. subtilis was 20 mm; in the assay on M. faecalis (0.1 mg/ml), 14 mm. For the same compound, the zone of inhibition at 3000 µg/mL in the assay with X. phaseoli was 15 mm. For the same compound, the zone of inhibition at 500 µg/mL in the assay on S. lutea (0.5 mg/ml) amounted to 14 mm.

As for `CNC(=O)c1ccc(N2CCN(c3c(C)nc(N)nc3N)CC2)cc1` [Example 7, 4-[4-(2,4-Diamino-6-methyl-5-pyrimidinyl)-1-piperazinyl]-N-methyl benzamide, hydrate (100:45)], the IC50 in assay [1] turned out to be 67 nM; with L1210 cells, 2.5 nM.

As to `Cc1nc(N)nc(N)c1N1CCN(c2ccc(C(=O)O)cc2)CC1.Cl` [Example 1, 4-[4-(2,4-Diamino-6-methyl-5-pyrimidinyl)-1-piperazinyl]benzoic acid hydrochloride], the “T/C × 100” value is 141% and 146% with P388 Leukemia (6.25 mg/kg, listed as CH3, H, H, 4-CO2 H, hydrochloride); 179% and 227% with P388 Leukemia (12.5 mg/kg, listed as CH3, H, H, 4-CO2 H, hydrochloride); 137% in the assay with P388 Leukemia (25 mg/kg); 258% in the assay on P388 Leukemia (50 mg/kg). Moreover, the “survival rate after 30 days” value in the assay on P388 Leukemia (50 mg/kg) is 3/6.

For the compound `COC(=O)CNC(=O)c1ccc(N2CCN(c3c(C)nc(N)nc3N)CC2)cc1` [Example 8, N-[4-[4-(2,4-Diamino-6-methyl-5-pyrimidinyl)-1-piperazinyl]benzoyl]glycine,methyl ester], the IC50 is 800 nM in assay [1] and 17 nM in the assay with L1210 cells.

`Cc1nc(N)nc(N)c1N1CCN(c2ccc(C(=O)N[C@@H](CCC(=O)O)C(=O)O)cc2)CC1` [Example 3, N-[4-[4-(2,4-diamino-6-methyl-5-pyrimidinyl)-1-piperazinyl]benzoyl]-L-glutamic acid]: the “T/C × 100” value in the assay with P388 Leukemia (6.25 mg/kg, listed as CH3, H, H, 4-CONHCH(CO2 H)CH2 CH2 CO2 H) is 144% and 137%; in the assay on P388 Leukemia (12.5 mg/kg, listed as CH3, H, H, 4-CONHCH(CO2 H)CH2 CH2 CO2 H) it was 155% and 168%; with P388 Leukemia (25 mg/kg, listed as CH3, H, H, 4-CONHCH(CO2 H)CH2 CH2 CO2 H), 172% and 167%; in the assay with P388 Leukemia (50 mg/kg), 222%; with P388 Leukemia (50 mg/kg, listed as CH3, H, H, 4-CONHCH(CO2 H)CH2 CH2 CO2 H), 188%.

With `CCc1nc(N)nc(N)c1N1CCN(c2ccc(C(=O)NC(CCC(=O)O)C(=O)O)cc2)CC1` (stereo not shown) [drawing 16], in assay [1], the IC50 came to 120 nM.

In the case of `Cc1nc(N)nc(N)c1N1CCN(c2ccc([N+](=O)[O-])cc2)CC1` [Example 4, 6-Methyl-5-[4-(4-nitrophenyl)-1-piperazinyl]-2,4-pyrimidinediamine, hydrate (10:1)], the IC50 is over 1000 nM in assay [1] and 15 nM with L1210 cells.

With `Cc1nc(N)nc(N)c1N1CCN(c2ccccc2)CC1` [Example 20, 6-Methyl-5-(4-phenyl-1-piperazinyl)-2,4-pyrimidinediamine, hydrochloride (5:1)], the IC50 with L1210 cells was determined as 150 nM.

In the case of `CCCc1nc(N)nc(N)c1N1CCN(c2ccc(C(=O)NC(CCC(=O)O)C(=O)O)cc2)CC1` (stereo not shown) [drawing 17], the IC50 in assay [1] was 85 nM.

Regarding `CCCc1nc(N)nc(N)c1N1CCN(c2ccc(C(=O)NC(CCC(=O)O)C(=O)O)cc2)CC1` (stereo not shown) [drawing 13], the IC50 with L1210 cells turned out to be 7.5 nM.

For `CCOC(=O)CCC(NC(=O)c1ccc(N2CCN(c3c(N)nc(N)nc3CC)CC2)cc1)C(=O)OCC` (stereo not shown) [drawing 15], the IC50 in assay [1] came to 26 nM.

Consider `Cc1nc(N)nc(N)c1N1CCN(c2ccc(N)cc2)CC1` [Example 22], for which the IC50 in the assay with L1210 cells came to 80 nM.

With `CCOC(=O)CCC(NC(=O)c1ccc(N2CCN(c3c(N)nc(N)nc3CC)CC2)cc1)C(=O)OCC` (stereo not shown) [drawing 19], the “T/C × 100” value in the assay on P388 Leukemia (6.25 mg/kg) stood at 163%; in the assay with P388 Leukemia (12.5 mg/kg), 183%; in the assay on P388 Leukemia (25 mg/kg) it was 241%; in the assay with P388 Leukemia (50 mg/kg), 258%. For the same compound, the results for the “survival rate after 30 days” value with P388 Leukemia (25 mg/kg) and in the assay with P388 Leukemia (50 mg/kg) were 2/6 and 5/6, respectively.

As for `CCOC(=O)CCC(NC(=O)c1ccc(N2CCN(c3c(N)nc(N)nc3CC)CC2)cc1)C(=O)OCC` (stereo not shown) [drawing 10], the IC50 with L1210 cells came out at 3.2 nM.

Consider `CCOC(=O)c1ccc(N2CCN(c3c(C)nc(N)nc3N)CC2)cc1` [Example 6, 4-[4-(2,4-Diamino-6-methyl-5-pyrimidinyl)-1-piperazinyl]benzoic acid, ethyl ester], for which the IC50 in assay [1] was found to be 49 nM; in the assay on L1210 cells, 5 nM.
